Source: ChEMBL document CHEMBL5291721, “A preclinical secondary pharmacology resource illuminates target-adverse drug reaction associations of marketed drugs” (Nat Commun, 2023)

Experiments:
[1] = biological target: T1, Type-1 angiotensin II receptor (Homo sapiens, UniProt P30556)
T1 sequence (P30556 whole entry): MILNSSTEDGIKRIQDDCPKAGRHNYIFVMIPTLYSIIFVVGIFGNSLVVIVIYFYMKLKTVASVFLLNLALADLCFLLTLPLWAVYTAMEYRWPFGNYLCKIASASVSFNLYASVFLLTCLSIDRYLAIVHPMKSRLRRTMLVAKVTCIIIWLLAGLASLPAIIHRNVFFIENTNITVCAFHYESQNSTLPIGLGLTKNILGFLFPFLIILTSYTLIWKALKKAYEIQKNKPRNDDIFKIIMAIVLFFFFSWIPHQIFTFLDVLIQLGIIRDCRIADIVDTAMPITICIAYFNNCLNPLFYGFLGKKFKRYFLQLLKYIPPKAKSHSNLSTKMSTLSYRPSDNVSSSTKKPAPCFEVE

[2] = biological target: Cannabinoid receptor 1 (Homo sapiens, UniProt P21554); format: functional, cell-based
Cannabinoid receptor 1, sequence (P21554 whole entry): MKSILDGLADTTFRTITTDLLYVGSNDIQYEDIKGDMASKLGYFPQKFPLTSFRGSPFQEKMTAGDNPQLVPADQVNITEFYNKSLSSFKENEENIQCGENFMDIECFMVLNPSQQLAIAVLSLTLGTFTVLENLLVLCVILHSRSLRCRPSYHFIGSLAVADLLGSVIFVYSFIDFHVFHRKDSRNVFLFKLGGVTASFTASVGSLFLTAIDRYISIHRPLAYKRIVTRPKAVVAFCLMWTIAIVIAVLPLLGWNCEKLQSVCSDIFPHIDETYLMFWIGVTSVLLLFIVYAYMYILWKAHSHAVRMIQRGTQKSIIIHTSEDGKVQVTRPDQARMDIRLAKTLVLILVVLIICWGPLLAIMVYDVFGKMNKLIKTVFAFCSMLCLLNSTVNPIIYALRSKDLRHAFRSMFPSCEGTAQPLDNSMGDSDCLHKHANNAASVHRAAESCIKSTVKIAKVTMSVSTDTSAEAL

[3] = biological target: D(1A) dopamine receptor (Homo sapiens, UniProt P21728); format: functional, cell-based
D(1A) dopamine receptor, sequence (P21728 whole entry): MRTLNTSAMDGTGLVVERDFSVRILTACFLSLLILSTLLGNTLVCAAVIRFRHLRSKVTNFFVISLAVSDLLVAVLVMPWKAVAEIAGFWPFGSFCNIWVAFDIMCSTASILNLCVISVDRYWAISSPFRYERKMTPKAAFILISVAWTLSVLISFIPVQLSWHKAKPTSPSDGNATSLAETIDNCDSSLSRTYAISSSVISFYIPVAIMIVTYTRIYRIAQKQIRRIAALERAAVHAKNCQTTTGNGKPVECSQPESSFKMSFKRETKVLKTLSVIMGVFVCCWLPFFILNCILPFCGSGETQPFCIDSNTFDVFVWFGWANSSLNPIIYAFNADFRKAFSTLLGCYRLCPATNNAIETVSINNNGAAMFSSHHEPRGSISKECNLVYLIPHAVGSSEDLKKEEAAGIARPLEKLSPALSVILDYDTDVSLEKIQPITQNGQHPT

[4] = biological target: T2, 5-hydroxytryptamine receptor 2B (Homo sapiens, UniProt P41595); format: functional, cell-based
T2 sequence (P41595 whole entry): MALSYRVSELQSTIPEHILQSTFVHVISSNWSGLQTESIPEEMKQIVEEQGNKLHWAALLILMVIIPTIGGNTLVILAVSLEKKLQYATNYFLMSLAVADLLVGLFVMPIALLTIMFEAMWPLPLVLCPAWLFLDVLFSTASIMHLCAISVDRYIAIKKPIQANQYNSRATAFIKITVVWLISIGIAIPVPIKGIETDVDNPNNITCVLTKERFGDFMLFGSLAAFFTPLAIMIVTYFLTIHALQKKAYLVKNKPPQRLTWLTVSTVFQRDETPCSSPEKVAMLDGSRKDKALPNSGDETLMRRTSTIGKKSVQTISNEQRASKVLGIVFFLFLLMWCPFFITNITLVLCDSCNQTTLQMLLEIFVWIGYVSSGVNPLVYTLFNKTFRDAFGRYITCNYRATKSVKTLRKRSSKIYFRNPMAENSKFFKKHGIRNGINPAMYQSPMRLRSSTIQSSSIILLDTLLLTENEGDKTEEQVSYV

[5] = biological target: T2, 5-hydroxytryptamine receptor 2B; format: functional, cell-based; remark: listed apart in the source
[6] = biological target: T3, Progesterone receptor (Homo sapiens, UniProt P06401); format: functional
T3 sequence (P06401 whole entry): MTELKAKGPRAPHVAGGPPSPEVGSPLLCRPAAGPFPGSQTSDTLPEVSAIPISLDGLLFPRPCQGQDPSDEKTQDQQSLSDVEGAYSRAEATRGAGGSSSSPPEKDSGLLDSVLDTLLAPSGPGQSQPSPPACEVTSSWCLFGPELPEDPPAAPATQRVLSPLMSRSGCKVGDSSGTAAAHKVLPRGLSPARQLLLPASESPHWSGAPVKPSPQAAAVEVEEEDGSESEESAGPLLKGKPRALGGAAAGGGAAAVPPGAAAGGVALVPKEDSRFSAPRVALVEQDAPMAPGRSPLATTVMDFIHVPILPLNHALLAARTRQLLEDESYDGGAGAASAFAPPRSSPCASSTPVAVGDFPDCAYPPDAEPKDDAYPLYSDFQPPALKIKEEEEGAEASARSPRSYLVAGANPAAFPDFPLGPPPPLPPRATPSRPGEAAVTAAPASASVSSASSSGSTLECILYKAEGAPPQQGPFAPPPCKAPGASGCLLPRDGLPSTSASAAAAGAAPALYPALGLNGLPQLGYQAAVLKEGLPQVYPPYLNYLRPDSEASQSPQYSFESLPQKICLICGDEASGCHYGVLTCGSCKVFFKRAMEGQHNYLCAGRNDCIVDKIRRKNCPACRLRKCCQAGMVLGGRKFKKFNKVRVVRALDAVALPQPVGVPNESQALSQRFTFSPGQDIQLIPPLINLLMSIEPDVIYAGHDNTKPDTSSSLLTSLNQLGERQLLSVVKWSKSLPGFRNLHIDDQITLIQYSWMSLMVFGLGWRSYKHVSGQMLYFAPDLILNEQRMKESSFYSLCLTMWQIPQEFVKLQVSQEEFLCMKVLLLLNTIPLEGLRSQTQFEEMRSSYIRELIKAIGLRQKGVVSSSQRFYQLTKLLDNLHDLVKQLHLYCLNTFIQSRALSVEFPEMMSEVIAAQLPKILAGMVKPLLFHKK

[7] = biological target: T4, Prostaglandin G/H synthase 1 (Rattus norvegicus, UniProt Q63921); format: functional
T4 sequence (Q63921 whole entry): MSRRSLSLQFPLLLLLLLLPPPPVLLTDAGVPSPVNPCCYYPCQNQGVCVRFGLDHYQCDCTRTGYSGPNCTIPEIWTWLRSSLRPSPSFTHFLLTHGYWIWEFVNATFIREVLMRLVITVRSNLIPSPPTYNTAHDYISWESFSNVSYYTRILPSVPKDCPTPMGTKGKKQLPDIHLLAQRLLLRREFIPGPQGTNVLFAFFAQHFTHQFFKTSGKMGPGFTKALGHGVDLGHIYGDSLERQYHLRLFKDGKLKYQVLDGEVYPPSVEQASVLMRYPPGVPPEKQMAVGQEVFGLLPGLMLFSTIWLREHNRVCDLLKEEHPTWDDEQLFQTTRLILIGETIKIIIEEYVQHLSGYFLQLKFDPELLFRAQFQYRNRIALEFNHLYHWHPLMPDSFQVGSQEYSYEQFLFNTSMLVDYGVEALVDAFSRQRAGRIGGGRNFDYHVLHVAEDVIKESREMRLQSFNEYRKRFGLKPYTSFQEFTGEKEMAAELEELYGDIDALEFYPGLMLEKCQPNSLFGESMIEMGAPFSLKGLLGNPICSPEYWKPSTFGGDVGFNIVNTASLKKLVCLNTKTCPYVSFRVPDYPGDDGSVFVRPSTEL

[8] = biological target: Sodium-dependent dopamine transporter (Homo sapiens, UniProt Q01959)
Sodium-dependent dopamine transporter, sequence (Q01959 whole entry): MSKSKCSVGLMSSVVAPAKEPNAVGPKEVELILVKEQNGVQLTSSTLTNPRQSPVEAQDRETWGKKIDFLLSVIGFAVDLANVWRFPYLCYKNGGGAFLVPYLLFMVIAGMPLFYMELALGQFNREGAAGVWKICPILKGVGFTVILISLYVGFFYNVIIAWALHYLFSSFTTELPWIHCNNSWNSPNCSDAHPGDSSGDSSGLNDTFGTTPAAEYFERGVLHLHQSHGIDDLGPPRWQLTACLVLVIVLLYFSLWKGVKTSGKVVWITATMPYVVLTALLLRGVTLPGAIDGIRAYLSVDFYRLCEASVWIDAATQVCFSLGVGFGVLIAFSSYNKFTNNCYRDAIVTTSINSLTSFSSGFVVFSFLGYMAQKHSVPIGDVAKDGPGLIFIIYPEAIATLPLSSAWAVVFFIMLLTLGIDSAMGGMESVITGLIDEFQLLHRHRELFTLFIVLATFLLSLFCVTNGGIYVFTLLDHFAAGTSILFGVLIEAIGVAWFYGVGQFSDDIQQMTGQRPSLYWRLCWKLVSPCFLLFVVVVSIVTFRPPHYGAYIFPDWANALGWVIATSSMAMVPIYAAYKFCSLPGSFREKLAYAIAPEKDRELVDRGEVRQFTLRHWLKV

[9] = biological target: Histamine H3 receptor (Homo sapiens, UniProt Q9Y5N1)
Histamine H3 receptor, sequence (Q9Y5N1 whole entry): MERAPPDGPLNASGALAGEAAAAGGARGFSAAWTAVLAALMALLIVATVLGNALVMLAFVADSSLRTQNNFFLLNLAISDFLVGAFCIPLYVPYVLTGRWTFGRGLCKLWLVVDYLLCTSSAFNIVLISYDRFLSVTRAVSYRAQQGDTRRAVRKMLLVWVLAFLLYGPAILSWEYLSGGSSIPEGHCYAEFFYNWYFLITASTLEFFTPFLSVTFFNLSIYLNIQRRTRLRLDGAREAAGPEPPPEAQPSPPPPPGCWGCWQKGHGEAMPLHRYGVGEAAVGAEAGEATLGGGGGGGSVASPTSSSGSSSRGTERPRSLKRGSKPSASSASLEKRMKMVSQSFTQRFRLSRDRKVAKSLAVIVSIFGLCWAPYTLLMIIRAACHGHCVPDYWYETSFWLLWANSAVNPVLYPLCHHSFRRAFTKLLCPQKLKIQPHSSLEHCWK

[10] = biological target: T5, Gastrin/cholecystokinin type B receptor (Homo sapiens, UniProt P32239)
T5 sequence (P32239 whole entry): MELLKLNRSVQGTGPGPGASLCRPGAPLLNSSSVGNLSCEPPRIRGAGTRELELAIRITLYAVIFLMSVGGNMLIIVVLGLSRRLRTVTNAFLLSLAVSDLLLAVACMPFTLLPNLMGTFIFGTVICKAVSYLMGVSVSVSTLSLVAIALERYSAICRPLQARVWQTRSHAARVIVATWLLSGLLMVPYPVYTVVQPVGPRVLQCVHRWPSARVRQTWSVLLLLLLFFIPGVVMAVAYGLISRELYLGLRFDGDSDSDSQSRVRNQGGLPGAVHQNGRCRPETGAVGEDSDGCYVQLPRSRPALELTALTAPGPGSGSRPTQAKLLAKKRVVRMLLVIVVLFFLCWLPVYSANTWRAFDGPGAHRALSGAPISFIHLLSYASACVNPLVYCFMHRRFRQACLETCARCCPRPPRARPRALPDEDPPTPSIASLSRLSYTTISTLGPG

[11] = biological target: Glutamate receptor ionotropic, NMDA 1 (Rattus norvegicus, UniProt P35439)
Note: assay procedure not described here.

Row | SMILES | AC50 [1] [µM] | AC50 [2] [µM] | AC50 [3] [µM] | AC50 [4] [µM] | AC50 [5] [µM] | AC50 [6] [µM] | AC50 [7] [µM] | AC50 [8] [µM] | AC50 [9] [µM] | AC50 [10] [µM] | AC50 [11] [µM]
1 | CCOc1cc([C@@H](CS(C)(=O)=O)N2C(=O)c3cccc(NC(C)=O)c3C2=O)ccc1OC | > 30 | > 30 | > 30 | > 30 | 4.5 | > 30 | > 30 | > 30 | > 30 | – | –
2 | CC=CC1=C(C(=O)O)N2C(=O)[C@@H](NC(=O)[C@H](N)c3ccc(O)cc3)[C@H]2SC1 [CEFPROZIL] | > 30 | – | > 30 | > 30 | > 30 | > 30 | 13.7 | > 30 | > 30 | > 30 | > 30
3 | CC(C)NC(=N)NC(=N)Nc1ccc(Cl)c(Cl)c1 [CHLORPROGUANIL] | – | > 30 | > 30 | > 30 | 12.2 | – | – | – | – | – | > 30
4 | CCCNC(=O)NS(=O)(=O)c1ccc(Cl)cc1 [CHLORPROPAMIDE] | > 30 | > 30 | > 10 | > 10 | > 10 | – | > 30 | > 30 | > 10 | > 30 | > 10
5 | Cc1cc(C2CCCCC2)n(O)c(=O)c1 [CICLOPIROX] | – | – | – | – | – | > 30 | > 3 | > 30 | – | – | –
6 | C[N+](C)(C)CCOP(=O)(O)OP(=O)([O-])OC[C@H]1O[C@@H](n2ccc(N)nc2=O)[C@H](O)[C@@H]1O [CITICOLINE] | – | > 30 | > 30 | > 30 | > 30 | – | – | – | – | – | > 30
7 | Clc1ccc(Cn2c(CN3CCCC3)nc3ccccc32)cc1 [CLEMIZOLE] | > 30 | > 30 | > 30 | 0.67 | – | – | > 30 | 24 | > 30 | – | –
8 | CC(C)Cc1ccc([C@H](C)C(=O)O)cc1 [DEXIBUPROFEN] | > 30 | > 30 | > 30 | > 30 | > 30 | > 30 | – | > 30 | > 30 | – | –
9 | O=C(O)Cc1ccccc1Nc1c(Cl)cccc1Cl [DICLOFENAC] | > 30 | > 30 | > 10 | > 10 | > 10 | – | – | > 30 | > 10 | > 30 | > 10
10 | CNC[C@H](O)c1ccc(O)c(O)c1 [EPINEPHRINE] | > 30 | > 30 | – | > 30 | > 30 | > 30 | > 30 | > 30 | > 30 | – | –
11 | O=C(O)Cc1ccccc1Oc1ccc(Cl)cc1Cl [FENCLOFENAC] | > 30 | > 30 | > 30 | > 10 | > 10 | – | > 30 | > 10 | > 10 | > 30 | > 10
12 | Cc1onc(-c2c(F)cccc2Cl)c1C(=O)N[C@@H]1C(=O)N2[C@@H]1SC(C)(C)[C@@H]2C(=O)O [FLOXACILLIN] | > 30 | > 30 | > 30 | > 30 | > 30 | > 30 | > 30 | > 30 | > 30 | – | –
13 | COc1ccccc1OC1(C)OC(=O)c2ccccc2O1 (stereo unspecified) [GUAIMESAL] | > 30 | – | – | – | – | > 30 | – | > 30 | > 30 | > 30 | –
14 | CCCCCCCN(CC)CCCC(O)c1ccc(NS(C)(=O)=O)cc1 (stereo unspecified) [IBUTILIDE] | > 30 | – | > 30 | > 30 | > 30 | > 30 | > 30 | > 30 | > 30 | > 30 | > 30
15 | CC[C@@H](CO)NC(=O)[C@@H]1C=C2c3cccc4c3c(cn4C)C[C@H]2N(C)C1 [METHYSERGIDE] | > 30 | > 30 | – | – | – | – | > 30 | > 30 | > 10 | > 30 | > 10
16 | CNC(=C[N+](=O)[O-])NCCSCc1csc(CN(C)C)n1 [NIZATIDINE] | > 10 | – | > 10 | > 10 | > 10 | > 10 | > 10 | > 10 | – | – | > 10
17 | CCCc1cc(=O)[nH]c(=S)[nH]1 [PROPYLTHIOURACIL] | > 10 | – | > 10 | > 10 | > 10 | > 10 | 6.6 | > 10 | > 10 | – | > 10
18 | S=P(N1CC1)(N1CC1)N1CC1 [THIOTEPA] | > 30 | > 30 | > 30 | > 30 | 1.6 | > 30 | > 30 | 27 | > 30 | – | –
19 | CC(C)C[C@H](NC(=O)[C@@H](O)[C@H](N)Cc1ccccc1)C(=O)O [UBENIMEX] | – | > 30 | > 30 | > 30 | > 30 | > 30 | > 30 | > 30 | – | – | > 30
20 | COc1cc(C(=O)NS(=O)(=O)c2ccccc2C)ccc1Cc1cn(C)c2ccc(NC(=O)OC3CCCC3)cc12 [ZAFIRLUKAST] | > 10 | 30 | > 10 | – | – | > 30 | 5.1 | > 10 | > 10 | – | > 10
21 | O=C1Cc2cc(CCN3CCN(c4nsc5ccccc45)CC3)c(Cl)cc2N1 [ZIPRASIDONE] | > 30 | > 30 | – | > 30 | 0.229 | – | > 30 | 5.11 | > 30 | > 30 | > 10
